Consider 25 compounds from patent US4605654A, “2-(arylalkyloxymethyl)morpholines and the central nervous system compositions” (P. F. Medicament, priority 1984, dated 1986).

In general, ED50 refers to the dose at which the effect has come halfway, by size or by number of responders. The term solubility denotes the concentration that dissolves in the medium under given conditions.

Counter-ions that a name gives are not always drawn. Like-named read-outs stand apart in the source and are kept apart here.

Data set [1] concerns 5-HTP (5-hydroxytryptophan). In words: 5-HTP (5-hydroxytryptophan) potentiation test (Christensen et al.): head movements and tremors. The class given is in vivo, mice. The settings on record: for ED50: Mus musculus, 0.25 h; for activity in the 5-HTP potentiation test: in words. The procedure: The mice receive an intravenous injection of 5-HTP (100 mg/10 ml/kg) after oral administration of the compounds to be studied (25 ml/kg). Fifteen minutes after the injection of 5-HTP, the presence and intensity of head movements and tremors are noted.

Another data set relates to nociceptive reactions. In words: Heating-plate test, analgesic activity (WOOLFE and MacDONALD). The class given is in vivo. The settings on record: mouse, oral, 100 mg/kg; 30 min; plate 65° C. The procedure: The products to be tested are administered to the mouse orally. 30 minutes later, the mice are placed on a plate brought to 65° C. The nociceptive reactions are assessed objectively in terms of the licking of the forepaws. The time for this response to appear is noted.
The method of calculation used is that described by HARRIS L. S. and PIERSON A. K. (1964, J. Pharmacol. Exp. Ther., 143, 141-148).

The nature of another data set: physchem. Particulars: water.
Setting [2] is: mice, oral, 5-HTP i.v. 100 mg/10 ml/kg, observed 15 min after 5-HTP, read-out: ED50.

As for `COc1cccc(COCC2CNCCO2)c1` (stereo not drawn) [Example 3, 2-[(3-Methoxybenzyloxy)methyl]morpholine hydrogen maleate], the ED50 in data set [1] (setting [2]) stood at 10 mg/kg. Besides, in data set [1] (mice, oral), the “activity in the 5-HTP potentiation test” value was “activity”. This compound displayed a solubility in the data set “Solubility in water” of 10 mg/mL.

The compound `Cc1ccc(COCC2CNCCO2)cc1` (stereo not drawn) [Example 7, 2-[(4-Methylbenzyloxy)methyl]morpholine hydrogen oxalate] showed a solubility in the data set “Solubility in water” of 20 mg/mL.

Turning to `CCC(=O)O[C@](Cc1ccccc1)(c1ccccc1)[C@H](C)CN(C)C` [Dextropropoxyphene, reference compound], the “PERCENTAGE ANALGESIA” value in the data set on nociceptive reactions was determined as 15%.

`Fc1cccc(Cl)c1COCC1CNCCO1` (stereo not drawn) [Example 15, 2-[(2-Fluoro-6-chlorobenzyloxy)methyl]morpholine hydrogen maleate] yielded a solubility in “Solubility in water” of 30 mg/mL.

With `c1ccc2c(c1)OCC(COCC1CNCCO1)O2` (stereo not drawn) [Example 17, 2-{[(1,4-Benzodioxan-2-yl)methoxy]methyl}morpholine hydrogen maleate], the solubility in the data set “Solubility in water” came to 100 mg/mL. This solubility is about 3.3-fold higher than that of the compound before.

As for `c1ccc(COc2ccc(COCC3CNCCO3)cc2)cc1` (stereo not drawn) [Example 42b, 2-[4-Benzyloxybenzyloxy)methyl]morpholine hydrogen oxalate], the solubility in the data set “Solubility in water” is 10 mg/mL.

As for `Clc1ccccc1COCC1CNCCO1` (stereo not drawn) [Example 8, 2-[(2-Chlorobenzyloxy)methyl]morpholine hydrogen maleate], the ED50 in data set [1] (setting [2]) stood at 15 mg/kg. Further, the “activity in the 5-HTP potentiation test” value in data set [1] (mice, oral) is on record as “activity”. The solubility in “Solubility in water” turned out to be 20 mg/mL.

As to `CCOc1ccccc1COCC1CNCCO1` (stereo not drawn) [Example 11, 2-[(2-Ethoxybenzyloxy)methyl]morpholine hydrogen maleate], the ED50 in data set [1] (setting [2]) was found to be 15 mg/kg. For the same compound, in data set [1] (mice, oral), the “activity in the 5-HTP potentiation test” value is listed as “activity”. This compound came in with a solubility in “Solubility in water” of 30 mg/mL. For the same compound, the “PERCENTAGE ANALGESIA” value in the data set with nociceptive reactions was 16%.

As to `Clc1ccc(COCC2CNCCO2)c(Cl)c1` (stereo not drawn) [Example 12, 2-[(2,4-Dichlorobenzyloxy)methyl]morpholine hydrogen maleate], the solubility in “Solubility in water” was found to be 40 mg/mL.

`Cc1cccc(COCC2CNCCO2)c1` (stereo not drawn) [Example 6, 2-[(3-Methylbenzyloxy)methyl]morpholine hydrogen maleate] showed a solubility in “Solubility in water” of 30 mg/mL. The solubility values of the last two compounds are within 1.5-fold of each other.

As to `Clc1ccc(COCC2CNCCO2)cc1` (stereo not drawn) [Example 10, 2-[(4-Chlorobenzyloxy)methyl]morpholine hydrogen maleate], the solubility in the data set “Solubility in water” is 60 mg/mL.

Regarding `COc1ccccc1COCC1CNCCO1` (stereo not drawn) [Example 2, 2-[(2-Methoxybenzyloxy)methyl]morpholine hydrogen fumarate], in the data set “Solubility in water”, the solubility was determined as 50 mg/mL. This solubility and that of the compound before are within 1.5-fold of each other.

`c1ccc2nc(N3CCNCC3)ccc2c1` [Quipazine, reference compound]: the 50% effective dose (ED50) in data set [1] (po) was determined as 15 mg/kg.

In “Solubility in water”, `Nc1ccc(COCC2CNCCO2)cc1` (stereo not drawn) [Example 44, 2-[(4-Aminobenzyloxy)methyl]morpholine dihydrogen succinate] had a solubility of 60 mg/mL.

On to `Clc1cccc(Cl)c1COCC1CNCCO1` (stereo not drawn) [Example 14, 2-[(2,6-Dichlorobenzyloxy)methyl]morpholine hydrogen maleate], for which the 50% effective dose (ED50) in data set [1] (setting [2]) was found to be 18 mg/kg. In addition, in the data set “Solubility in water”, the solubility was 50 mg/mL. In the data set with nociceptive reactions, the “PERCENTAGE ANALGESIA” value is 23%.

The compound `Clc1ccc(COCC2CNCCO2)cc1Cl` (stereo not drawn) [Example 13, 2-[(3,4-Dichlorobenzyloxy)methyl]morpholine hydrogen maleate] returned a solubility in “Solubility in water” of 10 mg/mL.

Consider “2-[(3-Phenylpropyloxy)methyl]morpholine hydrogen oxalate [Example 16]”, for which, in data set [1] (mice, oral), the “activity in the 5-HTP potentiation test” value is recorded as “activity”.

For `O=C(O)C(=O)O.Oc1ccc(COCC2CNCCO2)cc1` (stereo not drawn) [Example 42, 2-[(4-Hydroxybenzyloxy)methyl]morpholine hydrogen oxalate], the solubility in the data set “physchem” amounted to 200 mg/mL.

As to `Clc1cccc(COCC2CNCCO2)c1` (stereo not drawn) [Example 9, 2-[(3-Chlorobenzyloxy)methyl]morpholine hydrogen maleate], the ED50 in data set [1] (setting [2]) was found to be 15 mg/kg. Moreover, the “activity in the 5-HTP potentiation test” value in data set [1] (mice, oral) is listed as “activity”. Besides, the solubility in “Solubility in water” was determined as 20 mg/mL. Further, the “PERCENTAGE ANALGESIA” value with nociceptive reactions is 16%.

Take `c1ccc(COCC2CNCCO2)cc1` (stereo not drawn) [Example 1, 2-(benzyloxymethyl)morpholine hydrogen maleate]: the solubility in “Solubility in water” turned out to be 100 mg/mL.

In the data set “Solubility in water”, `COc1ccc(COCC2CNCCO2)cc1` (stereo not drawn) [Example 4, 2-[(4-methoxybenzyloxy)methyl]morpholine hydrogen oxalate] came in with a solubility of 40 mg/mL.

Take `Oc1cccc(COCC2CNCCO2)c1` (stereo not drawn) [Example 43, 2-[(3-Hydroxybenzyloxy)methyl]morpholine hydrogen oxalate]: the solubility in the data set “Solubility in water” was found to be 100 mg/mL. Against the preceding compound, the solubility is about 2.5-fold higher.

Consider `CC(OCC1CNCCO1)c1ccccc1` (stereo not drawn) [Example 37, 2-[(1-Phenylethyloxy)methylmorpholine hydrogen oxalate], for which the solubility in the data set “Solubility in water” was 50 mg/mL.

Regarding `Cc1ccccc1COCC1CNCCO1` (stereo not drawn) [Example 5, 2-[(2-Methylbenzyloxy)methyl]morpholine hydrogen maleate], the ED50 in data set [1] (setting [2]) came to 16 mg/kg. The “activity in the 5-HTP potentiation test” value in data set [1] (mice, oral) is listed as “activity”. Also, the “PERCENTAGE ANALGESIA” value in the data set on nociceptive reactions is 20%.

The compound `Nc1cccc(COCC2CNCCO2)c1.O=C(O)CCC(=O)O` (stereo not drawn) [Example 45, 2-[(3-Aminobenzyloxy)methyl]morpholine dihydrogen succinate] returned a solubility in the data set “physchem” of 120 mg/mL.
